Assay [1] deals with H460 lung cancer cells. In words: RT-PCR of AREG RNA in H460 lung cancer cells after chemotherapy. Type of assay: cell-based. As to conditions: 48 hour treatment. How it is done: FIG. 5 illustrates analysis of AREG and beta actin RNA expression in H460 lung cancer cells with/without either a 48 hour CPT11 treatment or 5-Fu treatment. RNA levels were analyzed following 35 cycle of PCR to determine relative differences in expression between treated and untreated samples.
Cells in a log phase of growth were seeded into T75 flask at ˜20% confluence and incubated overnight to allow adherence to the plate. […] Chemotherapy was substituted with saline in control flasks. After different time exposure to chemotherapy the cells were harvested, washed 3 times in PBS and total RNA was isolated using the RNA TAT-60 reagent according to the manufacturer instructions.
Reverse transcription was performed with 2.5 μg of RNA using a High Capacity cDNA Archive kit (Applied Biosystem) according to the instruction of the manufacturer.
Semi quantitative RT-PCR was performed using a PTC 225 Gradient Cycler (MJ Research Incorporated. The PCR mixture, in a final volume of 25 μL, contains 12.5 μL of 2× Biomix (Bioline, UK), 2 μL of primers (10 μmol/L), 1 μL of cDNA and 9.5 μL of dH2O). PCR conditions were initial denaturation step of 95 C for 10 minutes, followed by 35 cycles of 95° C. for 30 sec for denaturation; as annealing step 55° C. for 30 sec; and extension at 72° C. for 90 sec, with a final extension of 72° C. for 10 minutes. […]

Assay [2] has as its system HCT116. In words: RT-PCR of AREG RNA in HCT116 cells after chemotherapy. Type of assay: cell-based, human. The settings on record: IC50 dose, 48 hours. How it is done: FIG. 1B illustrates analysis of AREG and beta actin RNA expression in HCT116 +/+ with/without a 48 hour CPT11 treatment. RNA levels were analyzed following 35 cycles of PCR to determine relative differences in expression between treated and untreated samples;
FIG. 6 illustrates AREG upregulation following chemotherapeutic challenge in A) HT29, B) HCT116 and C) MDA-MB231 cells. Cells were treated with/without chemotherapy for 48 hours. RT-PCR was performed with 1 μg of total RNA using primer pairs specific for the human AREG gene or GAPDH. The PCR products were separated on 1.5% agarose gel electrophoresis and visualized by ethidium bromide staining.
Cells in a log phase of growth were seeded into T75 flask at ˜20% confluence and incubated overnight to allow adherence to the plate. […] Chemotherapy was substituted with saline in control flasks. After different time exposure to chemotherapy the cells were harvested, washed 3 times in PBS and total RNA was isolated using the RNA TAT-60 reagent according to the manufacturer instructions. […]
Semi quantitative RT-PCR was performed using a PTC 225 Gradient Cycler (MJ Research Incorporated. The PCR mixture, in a final volume of 25 μL, contains 12.5 μL of 2× Biomix (Bioline, UK), 2 μL of primers (10 μmol/L), 1 μL of cDNA and 9.5 μL of dH2O). […]

For assay [3], the system named is HCT116 cells. Briefly: FACS analysis of cell surface AREG in HCT116 with or without irinotecan. Type of assay: cell-based, human. As to conditions: 2.5 μM for 48 hours; HCT116 and H460 analysed, cell line not given. How it is done: (§1) Following treatment cells were stained with AREG monoclonal antibodies and analysed by FACS
(§2) After 48 hours cells were washed in PBS and blocked for 20 minutes in Normal Goat Serum. 5×10^5 cells were incubated with AREG antibodies or isotype control for 2 hours and washed in PBS-T. The cells were incubated with a FITC conjugated goat anti-mouse antibody for 1 hour and washed in PBS-T before analysis on BD FACS canto.
For orientation: Flow cytometry measures light scatter and fluorescence of single cells or particles in a stream.

Assay [4] deals with H460 lung carcinoma cell line. In words: FACS analysis of cell surface AREG in H460 with or without irinotecan. As to conditions: 2.5 μM for 48 hours. Type of assay: cell-based. On the procedure:
as §1, §2

Assay [5] has as its system HCT116 +/+. Briefly: Western blot of AREG protein in HCT116 lysates after chemotherapy. Type of assay: cell-based, human. The settings on record: HCT116 p53 wild type lysates; 48 hour treatment. How it is done:
FIG. 2 illustrates western blot analysis of AREG and gamma tubulin protein expression in HCT116 +/+ and RKO +/+ with/without a 48 hour CPT11 or 5-Fu treatment; HCT 116, RKO, HT 29 and H630 are human colorectal carcinoma cell lines. After different time exposure to chemotherapy the cells were harvested, and washed in 1×PBS. The cell pellet was then lysed in a suitable amount of 1×RIPA lysis buffer (150 mM NaCl, 10 mM Tris at pH 7.2, 0.1% SDS, 1.0% triton X-100 and 5 mM.EDTA) supplemented with protease inhibitors. The cell lysate was briefly vortexed, incubated on ice for 10 min and then centrifuged at 12,000 rpm to remove cell debris. Following centrifugation, the lysate supernatant was removed to a fresh eppendorf tube. Protein concentrations were assayed using the BCA Protein Assay (Pierce) according to the manufacturer's instructions. The absorbance of each sample at 620 nm was assayed using a microplate reader. A standard BSA curve was plotted for each experiment and the protein concentration of each sample calculated. To each sample an equal volume of 5× Western sample buffer and 10% of the final volume of β-mercaptoethanol (Sigma) was added. The samples were denatured at 95° C. for 5 minutes and placed on ice prior to loading onto SDS polyacrylamide gel (SDS PAGE). […] Protein bands were detected by exposure to autoradiograph which was subsequently developed. […]
On the technique in general: In western blotting, separated proteins are transferred to a membrane and probed.

Regarding `CCc1c2c(nc3ccc(OC(=O)N4CCC(N5CCCCC5)CC4)cc13)-c1cc3c(c(=O)n1C2)COC(=O)[C@]3(O)CC` [CPT-11, irinotecan], in assay [1], the “AREG RNA expression (RT-PCR, 35 cycles)” value was “enhanced expression of AREG”. In assay [2], the “AREG mRNA expression (RT-PCR)” value is “up-regulation”. Also, the “increase in the cell surface expression of AREG (FACS)” value in assay [3] is listed as not above 40%. Further, the “AREG surface expression levels (FACS), detected by clones 3H5 and 3F8” value in assay [4] is given as “up-regulation in expression levels”. For the same molecule, in assay [5], the “AREG protein expression (western blot)” value is listed as “Enhanced AREG expression”.

For the origin of these results see patent publication US20100111965A1, “COMBINATION THERAPY” (FUSION ANTIBODIES LIMITED, priority 2006, published 2010).
